According to US6664271B1, “Immunopotentiator agents” (Eli Lilly and Company, priority 1999, dated 2003):
Marks after values point to notes of the source that are not given here.

Legend:
[1] = test system: chicken leukocytes; test: cells; format: cell-based; conditions: for MSC (Minimum Stimulatory Concentration) / minimal effective concentration: chicken leukocytes, read at 72 hours; for minimal effective concentration: Gallus gallus, Leukocyte, read-out: MSC (Minimum Stimulatory Concentration); for MTC (Maximum Tolerable Concentration prior to causing cytotoxicity): Hubbard/Peterson broiler, chicken, 72 h
Description: Various compounds of Formula I were evaluated for in vitro T-lymphocyte blastogenic activity with chicken leukocytes according to the steps described in the following procedure:
(a) Exsanguination step. The leukocytes were obtained from 3-6 week old Hubbard/Peterson broiler chickens. Initially, the chickens were rendered unconscious in a CO2 chamber. The chickens were then exsanguinated via cardiac puncture. In the exsanguination procedure, a syringe was connected to a needle, and the needle was inserted into the area at the base of the neck under the “V” formed by the breast and sternum. After the needle was properly inserted, continuous vacuum was applied to a syringe (connected to the needle) by pulling back on the plunger. It is important to promptly carry out this withdrawal action, because there is only a 10-15 seconds time period after the blood has starting flowing into the syringe before the blood coagulates, and becomes unusable. As soon as the syringe is full (or prior to complete filling if too much time has elapsed such that the blood begins to coagulate), the whole uncoagulated blood is transferred to a tube having the anticoagulant EDTA therein. The tube is then rotated to mix the whole blood and the EDTA. Alternatively, the whole blood can be withdrawn directly into a vacuum container already having EDTA therein, rather than into a syringe.
(b) Leukocyte isolation step. Numerous methods for isolating leukocytes from (uncoagulated) whole blood are known in the art. In a preferred method, the sterile whole blood was combined with methylcellulose (1.5:1). Any blood containing clots was discarded. The mixture was centrifuged at 30×g for ten minutes (300 rpm on Beckman GS-6R centrifuge). The top layer (leukocytes in supernatant) was decanted into a sterile 50 ml conical tube, while taking care to prevent contamination of the sample by red blood cells. The decanted layer was then centrifuged at 200×g for ten minutes (1500 rpm on the Beckman GS-6R centrifuge). The supernatant liquid was discarded, and the resulting cell “pellet” was retained.
The cells were then washed in a solution containing 10 ml PBS (phosphate buffered saline) and Gentamycin (gentamicin sulfate) at a concentration of 50 μg/ml. This solution was centrifuged at 100×g (1000 rpm on the Beckman centrifuge) for five minutes, and the supernatant liquid was discarded. The washing step (including the centrifuging at 100×g) was repeated to ensure complete removal of the methylcellulose. The use of media such as DMEM ([…]) was avoided in the washing steps, since such media may cause agglutination of the white blood cells. Finally, the cells were then suspended in an appropriate media, such as RPMI 1640 tissue cell culture medium, supplemented with phenol red, NaHCO3, and L-Glutamide. Supplemented RPMI 1640 is available from Sigma-Aldrich Chemical Co.
(c) Cell counting and cell viability step. The cells were counted and checked for viability using the Trypan Blue method of exclusion. 0.1 ml of the cell suspension was placed in a 4-5 ml small culture tube along with 0.7 ml HBSS (Hank's Buffered Saline Solution), available from Sigma-Aldrich, and 0.2 ml of a 0.4% solution of aqueous Trypan Blue stain, available from GIBCO BRL, of Grand Island, N.Y. The components were mixed thoroughly but gently, and allowed to sit for 5 minutes (no longer than 15 minutes). The components should not be exposed to the stain for extended periods of time, because such extended exposure may permit viable cells, as well as non-viable cells, to take up dye.
A cover slip was placed on a Bright Line hemacytometer, available from Howser Scientific, and 10 μl of the mixture from the tube was transferred to each chamber. Non-viable cells appear blue under a microscope. The viable cells in one of the 16-square corners of the hemacytometer were then counted. […]

[2] = test system: E. coli 19B; test: bacterial clearance of E. coli from peripheral blood of neonatal chicks (Example 77); format: in vivo, chick; conditions: single subcutaneous injection of 25 μg, E. coli challenge, blood 14-18 hours post-challenge
Description: The compounds of Example 15 ((S)-ethyl 1-benzoyl-3-piperidinecarboxylate), Example 29 (1-benzoyl-3-butyrylpiperidine), Example 30 ((S)-ethyl 1-(2-thiopheneacetyl)-3-piperidinecarboxylate) and Example 68 ((S)-ethyl 1-benzyl-3-piperidinecarboxylate 1-methiodide), respectively, were tested to determine whether a single subcutaneous injection enhanced the bacterial clearance of E. coli from the peripheral blood of neonatal chicks. Bacterial clearance is a measurement of cell-mediated immunity, specifically, phagocyte function, in animals. An approved Animal Care and Use Committee protocol governed the activity in this experiment.
1 ml syringes with 21 g 1″ needles (Becton Dickinson and Company Franklin Lakes, N.J. 07417-1884); 1 ml syringe with 25 g ⅝″ needles (Becton Dickinson and Company Franklin Lakes, N.J. 07417-1884); EMB agar plates (Difco Laboratories, Becton Dickinson Microbiology Systems, Sparks, Md. 21152); Culture tubes (14 ml polystyrene round bottom, Becton Dickinson Labware, Franklin Lakes, N.J. 07417-1886); Dulbecco's Phosphate Buffered Saline w/o Mg^++ or Ca^++ (Gibco BRL, Life Technologies Rockville, Md. 20850). Peterson x Hubbard male chicks (day of hatch from a commercial hatchery) were utilized
160 chicks were divided into 6 groups: Group 1=Controls (acetate-buffered saline vehicle); Group 2=Compound of Example 15 ((S)-ethyl 1-benzoyl-3-piperidinecarboxylate); Group 3=Compound of Example 29 (1-benzoyl-3-butyrylpiperidine); Group 4=Compound of Example 30 ((S)-ethyl 1-(2-thiopheneacetyl)-3-piperidinecarboxylate); Group 5=Compound of Example 68 ((S)-ethyl 1-benzyl-3-piperidinecarboxylate 1-methiodide); and Group 6=environmental controls. Groups 1-5 contained 3 replicates of 10 chicks each and Group 6 contained 1 replicate of 10 chicks.
Day −2 Upon arrival, day of hatch chicks were randomized (10/group), and placed in a Petersime heated brooder battery unit (Petersime Incubator Company, Gettysburg, Ohio 45328). […] All chicks were given ad libitum access to a commercially available starter feed and water.
Day 0 11:00 AM. Five to ten colonies of E. coli 19B were selected from a fresh overnight blood agar plate (TSA II with 5% sheep blood, Becton Dickinson Microbiology Systems Cockeysville, Md. 21030) and placed into 100 ml Brain Heart Infusion broth (Difco Laboratories, Becton Dickinson Microbiology Systems Sparks, Md. 21152) in a flask. […]
Day 5 EMB plates were removed from the incubator and bacterial colonies were counted and recorded to calculate CFU/ml/chick.
Data was transformed to logio values, and analysis of variance was used to determine significant differences between the treatment groups and controls. Data was expressed as the percentage of enhancedbacterial clearance compared to E. coli-challenged controls. […]

[3] = test system: E. coli; test: colibacillosis infection model in broiler chickens, Trial A (Example 78); format: in vivo, chicken; conditions: 2 μg/chick subcutaneous

Row | Compound | minimal effective concentration [1] | MTC (Maximum Tolerable Concentration prior to causing cytotoxicity) [1] | other results
1 | CCOC(=O)C1CCC[N@+](C)(Cc2ccccc2)C1.[I-] (stereo partly drawn) [Example 68, (S)-Ethyl 1-Benzyl-3-piperidinecarboxylate 1-methiodide] | – | – | MSC (Minimum Stimulatory Concentration) [1]: 1 µg/mL; % Enhanced Clearance Compared to Controls [2]: 50* %
2 | CCCC(=O)C1CCCN(C(=O)c2ccccc2)C1 (stereo not drawn) [Example 29, 1-Benzoyl-3-butyrylpiperidine] | 1 µg/mL | 10 µg/mL | % Enhanced Clearance Compared to Controls [2]: 33* %
3 | CCOC(=O)[C@H]1CCCN(C(=O)c2ccccc2)C1 [Example 15, (S)-Ethyl 1-Benzoyl-3-piperidinecarboxylate] | 0.1 µg/mL | 10 µg/mL | % Enhanced Clearance Compared to Controls [2]: 34* %
4 | CCOC(=O)C1CN(C(=O)OCc2ccccc2)CCC1=O (stereo not drawn) [Example 10, Ethyl 1-Benzyloxycarbonyl-4-oxo-3-piperidinecarboxylate] | 0.01 µg/mL | 0.1 µg/mL | –
5 | CCOC(=O)C1CN(C(=O)c2ccc(F)cc2)CCC1=O (stereo not drawn) [Example 12, Ethyl 1-(4-Fluorobenzoyl)-4-oxo-3-piperidinecarboxylate] | 0.01 µg/mL | 0.1 µg/mL | –
6 | CCNC(=O)C1CCCN(C(=O)Cc2cccs2)C1 (stereo not drawn) [Example 20, N-Ethyl 1-(2-Thiopheneacetyl)-3-piperidinecarboxamide] | 0.1 µg/mL | 1 µg/mL | –
7 | COC(=O)C1CN(C(=O)OCc2ccccc2)CCC1=O (stereo not drawn) [Example 38, Methyl 1-Benzyloxycarbonyl-4-oxo-3-piperidinecarboxylate] | 1 µg/mL | 1 µg/mL | –
8 | CCOC(=O)C1CN(C(=O)Cc2cccs2)CCC1C (stereo not drawn) [Example 62, Ethyl 1-(2-Thiopheneacetyl)4-methyl-3-piperidinecarboxylate] | 1 µg/mL | 10 µg/mL | –
9 | CCCOC(=O)[C@H]1CCCN(C(=O)c2ccccc2)C1 [Example 53, (S)-Propyl 1-Benzoyl-3-piperidinecarboxylate] | 1 µg/mL | 10 µg/mL | –
10 | CCOC(=O)CC1CCCCN1C(=O)Cc1cccs1 (stereo not drawn) [Example 28, Ethyl 1-(2-Thiopheneacetyl)-2-piperidinylacetate] | – | – | MSC (Minimum Stimulatory Concentration) [1]: 0.1 µg/mL
11 | CCOC(=O)C1CCCN(C(=O)c2ccc(-c3ccccc3)cc2)C1 (stereo not drawn) [Example 36, Ethyl 1-(4-Phenylbenzoyl)-3-piperidinecarboxylate] | 0.1 µg/mL | 10 µg/mL | –
12 | CCOC(=O)C1CCCN(C(=O)Cc2cccs2)C1 (stereo not drawn) [Example 9, Ethyl 1-(2-thiopheneacetyl)-3-piperidinecarboxylate] | 0.01 µg/mL | 1 µg/mL | –
13 | CCOC(=O)C1CN(C(=O)NC)CCC1=O (stereo not drawn) [Example 11, Ethyl 1-(N-Methylaminocarbonyl)-4-oxo-3-piperidinecarboxylate] | 0.001 µg/mL | 1 µg/mL | % Colibacillosis-associated Mortality [3]: 14.0%; % Total Mortality [3]: 16.5* %; Average Weight Gain/Bird [3]: 1.40 lb (635 g); Feed/Gain [3]: 1.35
14 | Ethyl 1-(2-Bromobenzoyl)-2-acetylpiperidinecarboxylate [Example 45] | – | – | MSC (Minimum Stimulatory Concentration) [1]: 1 µg/mL
15 | CN(C)C(=O)C1CCC[N@+](C)(Cc2ccccc2)C1.[I-] (stereo partly drawn) [Example 71, (S)-N,N-Dimethyl 1-Benzyl-3-piperidinecarboxamide 1-methiodide] | – | – | MSC (Minimum Stimulatory Concentration) [1]: 0.1 µg/mL
